Experimental data as given in EPA's ToxValDB 9.5 (doi:10.2903/j.efsa.2011.2087).
≈ marks a conversion by molar mass, not a printed value.

Columns and labels:
Cyprinodon variegatus = settings: acute; duration: 96 hours; mortality
Bibionidae = settings: chronic/long-term; duration: 28 days
Colinus virginianus = settings: reproduction developmental
Pimephales promelas = settings: chronic/long-term; duration: 272 days; growth
Apis mellifera = settings: acute; duration: 96 hours; dermal; mortality
Oncorhynchus mykiss = settings: acute; duration: 96 hours; mortality
Daphnia magna = settings: chronic/long-term; duration: 21 days; reproduction
Tagia sp. = settings: acute; duration: 14 days; mortality
Typhlodromus pyri = assay: LR50; higher = less toxic; settings: acute; duration: 7 days; mortality

C#CCOS(=O)OC1CCCCC1Oc1ccc(C(C)(C)C)cc1 (stereo not drawn) [Propargite]
LC50 (Cyprinodon variegatus): 0.055 µg/mL (≈ 0.157 µM)
LD50 (Rattus norvegicus; acute, oral, mortality): 2640 mg/kg-day
NOEL (Rattus norvegicus; chronic): 6.3 mg/kg-day
NOEC (Bibionidae): 0.32 mg/L
LD50 (Anas platyrhynchos; acute, oral, unspecified, mortality): > 4640 mg/kg
NOEC (Anas platyrhynchos; reproductive): 13.5 mg/kg-day
NOEC (Colinus virginianus): 142 mg/kg-day
NOEC (Pimephales promelas): 0.0057 mg/L
LD50 (Apis mellifera): 47.9 µg/piece
LC50 (Oncorhynchus mykiss): 0.043 µg/mL (≈ 0.123 µM)
NOEC (Daphnia magna): 0.009 mg/L
LC50 (Tagia sp.): 378 mg/kg
LR50 (Typhlodromus pyri): 4.5 g/ha
